Data set [1] relates to CCD-18Co cells. Nature of the data set: Cell viability assay (MTT), CCD-18Co. The class given is cell-based, human. The settings on record: 48 h. As to the method:
(§1) Human keratinocyte HaCaT cells and human colon cancer HCT116 cells were cultured in Dulbecco's modified Eagle's medium (DMEM) supplemented with 10% fetal bovine serum at 37° C. humidified air and 5% CO2. Human normal colon (CCD-18Co) cells (ATCC) were cultured in Eagle's minimal essential medium (EMEM) supplemented with 10% fetal bovine serum at 37° C. humidified air and 5% CO2. Human Umbilical Vein Endothelial Cells (HUVEC, cat #CC-2519, Lonza) were cultured in EGM (Lonza cat #CC-3124) under the same condition.
(§2) Cells were seeded in a 96-well clear bottom plate, and 24 h later cells were treated with various concentrations of the apratyramide or solvent control (DMSO). After 48 h of incubation, cell viability was detected using MTT according to the manufacturer's instructions (Promega, Madison, Wis.). Nonlinear regression analysis was carried out using GraphPad Prism software for IC50 value calculations.

The subject of data set [2] is PDGFB. The data set can be described thus: PDGFB transcript level in HaCaT cells (RT-qPCR). The class given is cell-based, human. Particulars: 16 h. The protocol:
(§3) HaCaT cells were seeded in 6-well plates at a density of 2×10^5 per well and incubated further for 24 h in supplement-free medium prior to treatment. RNA was isolated at 3, 12 or 16 h post treatment using the RNeasy mini kit (QIAGEN, Valencia, Calif.). Total RNA was quantified using NanoDrop 2000. From 2 μg of total RNA, cDNA synthesis was done using SuperScript II Reverse Transcriptase (Invitrogen, Carlsbad, Calif.) and oligo (dT) (Invitrogen).
(§4) qPCR after reverse transcription (RT-qPCR) was performed on a 25 μL reaction solution containing a 0.3 μL aliquot of cDNA, 12.5 μL of TaqMan gene expression assay mix, 1.25 μL of probes, and 11 μL RNase-free water. qPCR was carried out on an ABI 7300 sequence detection system using the thermocycler program: 2 min at 50° C., 10 min at 95° C., and 15 s at 95° C. (40 cycles) and 1 min at 60° C. Each experiment was performed in triplicate. VEGF-A (Hs00900055_m1), PDGFB (Hs00266645_m1) and bFGF (Hs00966522_m1) were used as target genes, while GAPDH (Hs02758991_g1) was used as endogenous control. Graphs and data analysis were performed using the Prism software and analyzed using unpaired t test.
Background: Real-time PCR tracks product formation cycle by cycle.

The test system of data set [3] is VEGF-A. The data set can be described thus: VEGF-A transcript level in HaCaT cells (RT-qPCR). Particulars: for VEGF-A mRNA level induction: 30 μM; for increase of VEGF-A transcript levels: 16 h. The data set is classed as cell-based, human. The protocol: as §1
HaCaT cells were seeded in 6-well plates at a density of 2×10^5 per well and incubated further for 24 h in supplement-free medium prior to treatment. […] Total RNA was quantified using NanoDrop 2000. From 2 μg of total RNA, cDNA synthesis was done using SuperScript II Reverse Transcriptase (Invitrogen, Carlsbad, Calif.) and oligo (dT) (Invitrogen).
as §4

Data set [4] has as its system HCT116 cells. Nature of the data set: Cell viability assay (MTT), HCT116. The data set is classed as cell-based, human. The settings on record: 48 h. The protocol:
as §1, §2

Data set [5] concerns VEGF-A. The data set can be described thus: Measurement of human VEGF-A secretion from HaCaT cells (AlphaLISA). The settings on record: 24 h. The class given is cell-based. The protocol: as §1
HaCaT cells were seeded in a 96-well clear bottom plate. Cells were treated with various concentrations of apratyramide or solvent control (DMSO). After 24 h incubation, culture supernatants were collected for detection of VEGF-A using AlphaLISA kits (PerkinElmer, Waltham, Mass.) following the manufacturer's instruction. Briefly, acceptor bead and anti-VEGF-A antibody were incubated with the supernatants for 60 min, donor beads were added later and incubated for another 30 min. Signal was detected using Envision (PerkinElmer). Levels of VEGF-A (pg/mL) were calculated using a standard curve and then normalized based on cell numbers.
For orientation: In Alpha technology, singlet oxygen from a donor bead excites a nearby acceptor bead.

For data set [6], the system named is HaCaT cells. The data set can be described thus: Transcriptome profiling of HaCaT cells (Human Transcriptome Array 2.0, IPA). The data set is classed as cell-based. The protocol:
as §3
RNA was analyzed using a NanoDrop spectrophotometer and Agilent 2100 Bioanalyzer to determine the RNA concentration and quality, respectively. RNA samples were processed using the GeneChip WT PLUS Reagent Kit (Affymetrix, Santa Clara, Calif.) according to the manufacturer's instruction. In brief, 250 ng of RNA were used for cDNA synthesis by reverse transcription, and the cDNA was utilized as a template for the biotin-labeled RNA prepared by in vitro transcription reaction. The labeled RNA was further purified, fragmented, and hybridized with rotation at 45° C. for 16 h to the GeneChip™ Human Transcriptome Array 2.0. The arrays were washed and stained using the GeneChip Hybridization Wash and Stain kit on an Affymetrix Fluidics Station 450. The chips were scanned using a GeneChip 7G Scanner. […]

Data set [7] deals with IRE1. Nature of the data set: IRE1 transcript (microarray) and protein (immunoblot) in HaCaT cells. The data set is classed as cell-based, human. The protocol: (§5) HaCaT cells were seeded in 6-well clear bottom plate the day before treatment. The next day, cells were treated with 1 or solvent control (DMSO). 24 h later, whole cell lysates were collected using PhosphoSafe buffer (EMD Chemicals, Inc, Gibbstown, N.J.). Protein concentrations were measured with the BCA Protein Assay kit (Thermo Fisher Scientific, Rockford, Ill.). Lysates containing equal amounts of protein were separated by SDS polyacrylamide gel electrophoresis (4-12%), transferred to polyvinylidene difluoride membranes, probed with primary and secondary antibodies, and detected with the SuperSignal West Femto Maximum Sensitivity Substrate (Thermo Fisher Scientific). BIP, IRE1, β-actin and secondary anti-mouse and rabbit antibodies were from Cell Signaling Technology, Inc (Danvers, Mass.). ATF4 and ORP150 antibodies were obtained from Santa Cruz (Calif.).
(§6) RNA was analyzed using a NanoDrop spectrophotometer and Agilent 2100 Bioanalyzer to determine the RNA concentration and quality, respectively. RNA samples were processed using the GeneChip WT PLUS Reagent Kit (Affymetrix, Santa Clara, Calif.) according to the manufacturer's instruction. In brief, 250 ng of RNA were used for cDNA synthesis by reverse transcription, and the cDNA was utilized as a template for the biotin-labeled RNA prepared by in vitro transcription reaction. […]
In general terms: A western blot detects proteins with antibodies after separation by electrophoresis.

The subject of data set [8] is VEGF-A. The data set can be described thus: VEGF-A transcript level in HCT116 cells (RT-qPCR). The class given is cell-based, human. The settings on record: 16 h. As to the method:
as §1, §4

Data set [9] deals with VEGF-A. The data set can be described thus: VEGF-A mRNA in ablated rabbit corneas, ex vivo organ culture. Particulars: ablated rabbit corneas ex vivo, 25, 50 or 100 μM, 18 h. The protocol:
The central 6 mm diameter area of corneas of twelve fresh rabbit globes (Pelfreeze) was ablated to a total depth of 155 microns using a Nidek excimer laser in phototherapeutic keratectomy mode. Ablated corneas were then surgically dissected from the rabbit globes using sterile scalpel and forceps, grasping only the scleral rims and not the clear cornea. The corneas were cultured in DMEM/F-12 1:1 (Thermo Fisher) containing 40 mM HEPES, 10% FBS, 0.01% dextran 40 (Tokyo Chemical Industry, Co., Ltd.) and 0.025% chondroitin sulfate (Chem-Impex International, Inc.) in 6-well plates. Twelve corneas were randomly distributed into four groups (three corneas in each group): DMSO, 25 μM, 50 μM or 100 μM apratyramide. […]
The central scar-like tissue from each cornea was collected using an 8 mm punch biopsy. […] The purified cDNA was then quantified using nanodrop and used to generate a standard curve. Serial 10-fold dilutions of the quantified cDNA amplicon were subjected to RT-qPCR using SYBR Select Master Mix (Applied Biosystems). […] The mass-normalized Ct values for the apratyramide treatment groups and DMSO control group (n=3 biological replicates per group) were analyzed by a one-way ANOVA (α=0.05, Microsoft Excel 2010, Analysis Tool Pack) followed by Tukey's HSD post hoc test manually calculated in Excel 2010 (FIG. 8).

Data set [10] has as its system ORP150. The data set can be described thus: ORP150 transcript (microarray) and protein (immunoblot) in HaCaT cells. The class given is cell-based, human. The protocol:
as §5, §6

Data set [11] concerns bFGF. Nature of the data set: bFGF transcript level in HaCaT cells (RT-qPCR). The class given is cell-based, human. Particulars: 16 h. The protocol:
as §3, §4

The test system of data set [12] is ATF4. Nature of the data set: ATF4 transcript (microarray) and protein (immunoblot) in HaCaT cells. The class given is cell-based, human. As to the method:
as §5, §6

Data set [13] deals with HUVECs. Nature of the data set: In vitro angiogenesis assay (matrigel, HUVECs, HaCaT conditioned medium). The data set is classed as cell-based, human. The settings on record: HUVECs 14 h, vs CM-DMSO. As to the method: HaCaT cells were seeded in 12-well plates in complete growth medium the day before treatment. The next day, the medium was replaced with fresh medium followed by the treatment of 1 or solvent control. After 24 h or incubation, the conditioned medium was collected for the in vitro angiogenesis assay.
HUVECs (Lonza) were used at passage 4 for this assay. In vitro Angiogenesis Assay Kit (Chemicon) was used according to the manufacturer's recommendation. Briefly, an ice-cold mixture of ECMatrix was transferred into a precooled 96-well plate. After the matrix solution had solidified (>1 h incubation at 37° C., 10,000 cells were mixed with the CM or EGM with or without the presence of VEGF-A protein, 100 ng/mL and plated into each well. After incubation at 37° C. for 14 h, images were captured for each well using a Nikon inverted microscope equipped with NIS-Elements software. Branch point counting was used as quantification method. Three random microscope view-fields were counted and the number of branch points was averaged for each well. Branch point for each group was calculated by averaging eight replicates from two independent experiments.

Data set [14] concerns HaCaT cells. The data set can be described thus: Cell viability assay (MTT), HaCaT. The class given is cell-based, human. The settings on record: 24 h. The protocol:
as §1
Cells were seeded in a 96-well clear bottom plate, and 24 h later cells were treated with various concentrations of the apratyramide or solvent control (DMSO). […] Nonlinear regression analysis was carried out using GraphPad Prism software for IC50 value calculations.

“Also recorded” adds a separate entry of the source.

On to `CC[C@H](C)[C@@H](OC(=O)[C@H](Cc1ccc(OC)cc1)N(C)C)C(=O)N[C@H](C(=O)N(C)[C@@H](Cc1ccc(O)cc1)C(=O)N(C)[C@@H](Cc1ccc(O)cc1)C(=O)OC)C(C)C` [Compound 1, Apratyramide], for which, in data set [1], the “effects on cell viability” value is reported as “negligible effects”. The PDGFB transcript level entry in data set [2] was “stimulated”. The “VEGF-A mRNA level induction” value in data set [3] (4 h) was 1.7 fold; in [3] (12 h) it was “greater induction effect”. The “increase of VEGF-A transcript levels” value in data set [3] (31.6 μM) was determined as 5 fold; in [3] (50 μM) it was 7 fold. Further, the “cytotoxicity (antiproliferative effect)” value in data set [4] is recorded as “minimal cytotoxicity”. The entries for the “increase of VEGF-A secretion” value in data set [5] (31.6 μM) and in [5] (50 μM) were 1.3 fold and 1.5 fold, respectively. In addition, in [6] (30 μM, 12 h), the VEGF-A in microarray result is “one of the most up-regulated genes”. Besides, the microRNAs in microarray entry in data set [6] (12 h treatment) is listed as “down-regulation of several microRNAs”. Further, the “IRE1 transcript and protein levels” value in data set [7] was “up-regulated”. For the same compound, the VEGF-A transcript level entry in data set [8] is recorded as “up-regulated”. The VEGF-A transcript levels result in [8] (fifty micro-molar) was “doubled”. Also, the “VEGF-A mRNA in the cornea” value in data set [9] is recorded as “dose-dependent increase”. For the same compound, the “ORP150 transcript and protein levels” value in data set [10] is given as “up-regulated”. Besides, the bFGF transcript level entry in [11] is listed as “stimulated”. Also, the “ATF4 transcript and protein levels” value in [12] is listed as “up-regulated; also recorded: activated”. The “angiogenesis (tube-like structure formation) with conditioned medium” value in data set [13] (HaCaT culture treated with 30 μM for 24 h) and in data set [13] (HaCaT culture treated with 50 μM for 24 h) was “rescued” throughout. The cytotoxicity result in data set [14] (31.6 μM) is “without causing cytotoxicity”. In data set [14] (50 μM), the cell viability result is reported as “Around ninety-percent”.

For the origin of these results see US11358989B2, “Apratyramide therapeutic agents and methods of treatment” (University of Florida Research Foundation, Incorporated, priority 2017, dated 2022).
